Measurements published in publication PMC10581251, “Antisense inhibition of RNA polymerase α subunit of Clostridioides difficile” (Microbiology Spectrum, 2023).
Where a name gives a salt, the structure may show the parent alone. Read-outs that look alike come from different tables or passages of the source. Where no end group is shown, it is not given here.

What was measured:
[1] = test system: C. difficile ATCC 630; assay: microbe, parasite or virus in culture
Experimental: (§1) The susceptibility of C. difficile isolates to the CPP-PNA conjugates or to the CPP alone was determined in vitro as described before with slight modifications ([43] [–] [45]). Briefly, the CPP-PNA conjugates, the CPP alone, and the antibiotics vancomycin and fidaxomicin were added in triplicate to the first row of ultra-low adhesion 96-well plates (Corning Inc., Corning, NY). A suspension of C. difficile equivalent to 0.5 McFarland solution was added to Mueller-Hilton II broth, which was then added to the ultra-low adhesion plate and then serially diluted. The plates were incubated anaerobically for 48 hours at 37°C. The minimum inhibitory concentration was defined as the lowest concentration of the CPP-PNA conjugate that could inhibit bacterial growth when observed visually.
(§2) The MIC and MBC experiments were repeated twice.

[2] = test system: C. difficile ATCC BAA 1870; assay: MIC/MBC broth microdilution, C. difficile ATCC BAA 1870; type: cell-based, Clostridioides difficile
Experimental: as §1, §2

[3] = test system: C. difficile ATCC 43255; assay: MIC/MBC broth microdilution, C. difficile ATCC 43255; type: cell-based, Clostridioides difficile
Experimental: as §1, §2

[4] = test system: clinical isolates of C. difficile; assay: MIC against clinical isolates of C. difficile (summary); type: cell-based, Clostridioides difficile; details: range over isolates of Table 3
Experimental: as §1, §2

[5] = test system: C. difficile 1082; assay: MIC/MBC broth microdilution, C. difficile 1082; type: cell-based, Clostridioides difficile
Experimental: as §1, §2

[6] = test system: C. difficile 1079; assay: MIC/MBC broth microdilution, C. difficile 1079; type: cell-based, Clostridioides difficile
Experimental: as §1, §2

[7] = test system: Bifidobacterium longum subsp. longum HM 846; assay: MIC gut microflora, Bifidobacterium longum; type: cell-based
Experimental: (§3) The susceptibility of gut microflora strains to the rpoA-TAT conjugate was determined using the broth microdilution assay, as described above. Briefly, bacterial suspensions of Bifidobacterium sp. and Bacteroides sp., in supplemented BHIS broth, and Lactobacilli strains, in MRS broth, were added to ultra-low adhesion 96-well plates and serially diluted. The MIC was recorded after 48 hours.

[8] = test system: Lactobacillus brevis ATCC 14869; assay: MIC gut microflora, Lactobacillus brevis; type: cell-based; details: Levilactobacillus brevis, ATCC14869, 48 h
Experimental: as §3

[9] = test system: C. difficile ATCC 630; assay: Effect of pH on MIC/MBC, C. difficile ATCC 630; type: cell-based, Clostridioides difficile; details: Clostridioides difficile
Experimental: as §1, §2
(§4) The susceptibility of C. difficile (ATCC 630 and ATCC BAA 1870) to the rpoA-TAT conjugate was evaluated over a pH range of 6 to 9 using the broth microdilution method ([43], [46] [–] [48]). The desired pH for susceptibility testing was attained by the addition of either 0.1 N HCL or 1 N NaOH to the media. The experiment was repeated twice.

[10] = test system: C. difficile ATCC BAA 1870; assay: Effect of pH on MIC/MBC, C. difficile ATCC BAA 1870; type: cell-based, Clostridioides difficile; details: Clostridioides difficile
Experimental: as §1, §2, §4

[11] = test system: toxin A and toxin B production by C. difficile 630; assay: Toxin production inhibition (ELISA); type: cell-based, Clostridioides difficile; details: sub-inhibitory concentrations 0.125×, 0.25×, 0.5× MIC, 8 hours, ELISA
Experimental: After the incubation period, the bacterial count in each treatment group was determined by serial dilution and plating. Toxin content in the supernatant of each treatment group was determined using an enzyme-linked immunosorbent assay (ELISA, tgcBIOMICS) kit, as per the manufacturer’s protocol.

[12] = test system: C. difficile 1071; assay: MIC/MBC broth microdilution, C. difficile 1071; type: cell-based, Clostridioides difficile
Experimental: as §1, §2

[13] = test system: Lactobacillus gasseri ATCC 19992; assay: MIC gut microflora, Lactobacillus gasseri; type: cell-based
Experimental: as §3

[14] = test system: Lactobacillus rhamnosus ATCC 53103; assay: MIC gut microflora, Lactobacillus rhamnosus; type: cell-based; details: Lacticaseibacillus rhamnosus, ATCC53103, 48 h
Experimental: as §3

[15] = test system: spore formation by C. difficile ATCC 630; assay: Spore formation inhibition; type: cell-based, Clostridioides difficile; details: 0.5× MIC, 12 hours
Experimental: After the incubation period, the total bacterial count for each treatment group was determined by serial dilution and plating on BHIS agar plates supplemented with 0.1% taurocholic acid. To determine the presence of spores, the remaining bacterial culture from each treatment group was heated at 65°C for 30 minutes to ensure all vegetative cells were killed. The bacterial culture from each treatment group was then serially diluted and plated on BHIS agar plates supplemented with 0.1% taurocholic acid. The plates were incubated overnight, and the CFU counts for each treatment group were determined the following day.

[16] = test system: Bacteroides fragilis HM 714; assay: MIC gut microflora, Bacteroides fragilis; type: cell-based; details: Bacteroides fragilis, HM714, 48 h
Experimental: as §3

[17] = test system: C. difficile 630; assay: Effect of high bacterial inoculum on activity; type: cell-based, Clostridioides difficile; details: 8 hours
Experimental: The in vitro efficacy of the PNA constructs against a high inoculum size of C. difficile 630 was determined. Briefly, the PNA constructs and control antibiotics, at a concentration of 1× MIC, were added in triplicate to low adhesion microcentrifuge tubes (Corning Inc., Corning, NY). A high inoculum of C. difficile suspension equivalent to ~5 × 10^6 and ~5 × 10^7 cells was added to the tubes, which were incubated anaerobically at 37°C. The number of viable bacteria in each treatment group was determined by serial dilution and plating on BHIS agar plates at 8 hours and 24 hours post-incubation, respectively. The effect of a high inoculum on the activity of the PNA construct was repeated twice.

[18] = test system: C. difficile 630; assay: Killing kinetics (time-kill assay); type: cell-based, Clostridioides difficile; details: 1× MIC, within 24 hours of incubation, inoculum ~5 × 10^5 CFU/mL
Experimental: The killing kinetics of the PNA construct was determined as described previously ([45] [–] [47]). Briefly, an overnight culture of C. difficile 630 was diluted 1:50 into fresh Mueller Hilton II broth (~10^5 CFU/mL) and added in triplicate to low adhesion microcentrifuge tubes containing either sterile water, the rpoA-TAT construct (1× MIC), or the positive controls vancomycin or fidaxomicin (1× MIC). The number of viable bacteria in each treatment group was determined by taking aliquots at 0, 4, 8, 12, 16, and 24 hours; these aliquots were then serially diluted and plated on BHIS agar plates. The plates were incubated anaerobically, and the number of colony-forming units for each treatment group was recorded the following day. The experiment was repeated twice.

[19] = aliquots of wells without growth plated on BHIS agar, repeated twice
[20] = broth microdilution, Mueller-Hilton II broth, anaerobic 48 hours 37°C, visual, triplicate, repeated twice
[21] = broth microdilution, anaerobic 48 hours 37°C, visual, read-out: MIC
[22] = plated on BHIS agar, read-out: MBC

## RXRRXRRXRRXRXB-O-CATGGACAAAAC-NH2 [(RXR)4XB -rpoA]
[1]; [19]
  MBC: 8 µM
[1]; [20]
  MIC: 8 µM

## GRKKKRRQRRRYK-O-CATACAATTCTC-NH 2 [rpoA-TAT mismatch, mismatch control PNA conjugated to the TAT cell penetrating peptide]
[2]; [21]
  MIC: >32 µM
[2]; [22]
  MBC: >32 µM
[1]; [19]
  MBC: >32 µM
[1]; [20]
  MIC: >32 µM
[3]; [21]
  MIC: >32 µM
[3]; [22]
  MBC: >32 µM
[4]
  MIC against clinical isolates of C. difficile: > 32 µM

## CN[C@H](CC(C)C)C(=O)N[C@H]1C(=O)N[C@@H](CC(N)=O)C(=O)N[C@H]2C(=O)N[C@H]3C(=O)N[C@H](C(=O)N[C@H](C(=O)O)c4cc(O)cc(O)c4-c4cc3ccc4O)[C@H](O)c3ccc(c(Cl)c3)Oc3cc2cc(c3O[C@@H]2O[C@H](CO)[C@@H](O)[C@H](O)[C@H]2O[C@H]2C[C@](C)(N)[C@H](O)[C@H](C)O2)Oc2ccc(cc2Cl)[C@H]1O [Vancomycin, Vancomycin hydrochloride]
[2]; Clostridioides difficile, BAA1870
  MBC: 4 µM
[2]; Clostridioides difficile, BAA1870, 48 h
  MIC: 4 µM
[5]; Clostridioides difficile, 1082
  MBC: 2 µM
[5]; Clostridioides difficile, 1082, 48 h
  MIC: 2 µM
[6]; Clostridioides difficile, 1079
  MBC: 2 µM
[6]; Clostridioides difficile, 1079, 48 h
  MIC: 2 µM
[1]; Clostridioides difficile, ATCC630
  MBC: 2 µM
[1]; Clostridioides difficile, ATCC630, 48 h
  MIC: 2 µM
[7]; Bifidobacterium longum, 48 h
  MIC: 2 µM
[7]; broth microdilution, supplemented BHIS broth, 48 hours
  MIC: 2 µM
[8]
  MIC: > 64 µM
[9]; ATCC630, pH 6
  MBC: 2 µM
  MIC: 2 µM
[9]; ATCC630, pH 7
  MBC: 4 µM
  MIC: 4 µM
[9]; ATCC630, pH 8
  MBC: 16 µM
  MIC: 8 µM
[10]; BAA1870, pH 6
  MBC: 4 µM
  MIC: 4 µM
[10]; BAA1870, pH 7
  MBC: 8 µM
  MIC: 4 µM
[10]; BAA1870, pH 8
  MBC: 16 µM
  MIC: 8 µM
[11]
  inhibition of toxin production (in words): did not inhibit toxin production
[12]; Clostridioides difficile, 1071
  MBC: 2 µM
[12]; Clostridioides difficile, 1071, 48 h
  MIC: 2 µM
[13]; Lactobacillus gasseri, ATCC19992, 48 h
  MIC: 1 µM
[13]; broth microdilution, MRS broth, 48 hours, read-out: MIC
  MIC: 1 µM
[14]
  MIC: > 64 µM
[15]
  inhibition of spore formation (in words): did not inhibit spore formation
[16]
  MIC: 64 µM
[3]; Clostridioides difficile, ATCC43255
  MBC: 4 µM
[3]; Clostridioides difficile, ATCC43255, 48 h
  MIC: 4 µM
[17]; inoculum 5 × 10^6, 1× MIC
  Log CFU: 5.37
[17]; inoculum 5 × 10^6, 1× MIC, vs no treatment
  Log reduction: 1
[17]; inoculum 5 × 10^7, 1× MIC
  Log CFU: 7.03
[18]
  reduction of bacterial burden: ~ 1.6 log10 CFU/mL

## KKKKKKKK-O-CATGGACAAAAC-NH2 [K8-rpoA]
[1]; [19]
  MBC: 32 µM
[1]; [20]
  MIC: 32 µM

## GRKKKRRQRRRYK [HIV-TAT]
[1]; [20]
  MIC: >64 µM

## KFFKFFKFFK-O-CATGGACAAAAC-NH2 [(KFF)3K-rpoA]
[1]; [19]
  MBC: 32 µM
[1]; [20]
  MIC: 32 µM

## RFRRFRRFRRFRXB-O-CATGGACAAAAC-NH2 [(RFR)4XB -rpoA]
[1]; [19]
  MBC: 8 µM
[1]; [20]
  MIC: 8 µM
